Consider 13 compounds from EP0305184A1, “Pyrimidines or their pharmaceutically acceptable salts thereof” (MITSUI PHARMACEUTICALS, INC., priority 1987, dated 1989).

One data set is described as follows: Acute toxicity. Type of data set: in vivo. The conditions noted are these: in vivo, mouse, 24 hours after administration. Here is the method: (§1) The acute toxicity of the compounds of the invention was examined by the following method.
(§2) Male ddy-strain 5-week old mice and male Wistar-strain 8 week old rats, five per group, were used as experimental animals. Each of the compounds was dissolved in saline and administered perorally (p.o.) or intraperitoneally (i.p.), and the toxicity of the compound was assessed 24 hours after the administration.

For the next data set, the system named is mouse. The data set can be described thus: Acute toxicity. It counts as in vivo. The settings on record: p.o., 24 hours after administration. As for the experimental part:
as §1, §2

Data set [1] deals with mice with nerve disorder induced by mercury poisoning. Nature of the data set: T-shaped maze learning and memory of mice with mercury poisoning. The conditions noted are these: 102 69.5, 116 76.9 mg/kg.ip/day; for running time: mean ± SE, after MMC; for Number of mice which ran to the safety area within 5 seconds: numerator: at least 8 of ten runs within 5 seconds, denominator: mice tested, after MMC 6 mg/kg/day. It counts as in vivo, Male BalbC strain mice. As for the experimental part:
Male BalbC strain mice, 7 weeks old, were first caused to learn a T-shaped maze three times in a week so that they run straight from a starting point to a safety area. Then, methylmercury chloride (MMC for short) was administered orally in a dose of 6 mg/kg/day for 6 days. A group of mice to which saline was administered in a dose of 0.1 ml/10 g/day was used as a control group. Beginning with the day next to the day of administering MMC, compounds Nos. 102 and 116 were intraperitoneally administered over 10 days in a dose of 69.5 mg/kg/day and 76.9 mg/kg/day, respectively, so as to make the mole numbers of the compounds equal. On the sixth day after administration of the drug (namely, on the 12th day after start of the experiment), learning of the T-shaped maze was resumed, and the running behaviors of the mice were observed. The number of mice which could be experimented in the T-shaped maze on the 10th and 11th days after the resumption (21st and 22nd days after the start of the experiment) was counted and expressed as a denominator. The number of mice which ran to the safety area within 5 seconds at least 8 times out of ten trial runnings was counted and expressed as a numerator. The decrease in the number of the test animals was due to death by MMC poisoning. The time (seconds) required for the animals to run to the safety area was measured, and the mean ± standard error (SE) was calculated.

Data set [2] deals with rats with crushed sciatic nerves. Nature of the data set: Curative effect on rats with crushed sciatic nerves. It counts as in vivo, male Wistar rats. The settings on record: i.p. once a day, Compound 118 30 mg/kg, Mecobalamin 0.5 mg/kg, mean ± S.E.; for Rate of recovery in muscle weight (%): soleus muscle, crushed side/normal side. Here is the method: The curing effect of the compound (I) of the invention was tested on rats having crushed sciatic nerves as a model of peripheral nervous disorder using (1) a change in the action of the hind paw with the crushed sciatic nerves and (2) a change in the weight of the muscle as an index of the course of degeneration and regeneration of peripheral nerves.
In the experiment, male Wistar rats (6 weeks old), seven per group, were used. The sciatic nerves were crushed by a method similar to the method of Yamatsu et al. (see Kiyomi Yamatsu, Takenori Kaneko, Akifumi Kitahara and Isao Ohkawa, Journal of Japanese Pharmacological Society, 72, 259-268 (1976) and the method of Hasegawa et al. (see Kazuo Hasegawa, Naoji Mikuni and Yutaka Sakai, Journal of Japanese Pharmacological Society, 74 721-734 (1978). Specifically, under anesthesia with pentobarbital (40 mg/kg, i.p.), the left side sciatic nerve was exposed at the femur and that site of the exposed sciatic nerve which was 5 mm to the center from the branched part between the N. tibialis and the N. suralis was crushed using a modified artery, klomme, having a width of 2 mm and a gap of 0.1 mm. After the operation, the rats were assigned to the test groups at random.
Compound No. 118 was selected as the compound (I) of the invention and intraperitoneally administered to the rats once a day from the day of operation to the 22nd day. A group to which mecobalamin (made by Gedeon Richter Ltd.) was administered and a group to which 0.9 % saline was administered were used as controls. The following items were measured with the lapse of time (on the lst, 4th, 7th, 10th, 14th, 17th, 21st, and 23rd days after the crushing of the sciatic nerves).
By a method similar to the method of Hasegawa [Hasegawa, K., Experientia, 34, 750-751 (1978)], the distance between the first and fifth digits of the hind paw was measured.
The ratio of the measured distance to the normal distance was calculated and expressed in percentage (%).
It is known that the removal of a nerve or its disorder causes atrophy of the muscle which is under its control, and the atrophy is gradually cured by re-control by the nerve. For this reason, a change in the weight of the muscle, which is quantitative, was selected as an index. Twenty-three days after the operation, the soleus muscles of both sides of paws were extracted under anesthesia with pentobarbital, and their weights were measured. The ratio of the weight of the soleus muscle on the crushed side to that of normal side was calculated and expressed in percentage (%).

The test system of data set [3] is rats having the lesioned nigral dopaminergic nerve cells. The data set can be described thus: Methamphetamine-induced rotational movement after 6-hydroxydopamine lesion and fetal dopamine cell transplantation. Type of data set: in vivo, female Wistar rats. As for the experimental part: Nigral dopaminergic nerve cells at the left side of the brain of 4-week old female Wistar rats (body weight 100 g) were lesioned by injecting a very small quantity of 6-hydroxydopamine. […] Upon administration of methamphethamine (5 mg/kg, i.p.) to the rats having the lesioned nigral dopaminergic nerve cells, they began rotational movement toward the lesioned side.
After two weeks from the destruction by the administration of the drug, portions of the truncus corporis callosi containing dopamine cells (i. e., substantia nigra and the tagmentum at the abdomen side) were cut from the brain of a fetal rat of 14 to 17 days of age, cut finely, and treated with trypsin. Then, the extracted tissues were incubated at 37°C for 30 minutes, and the tissues were subjected to pipetting to form a suspension. Five microliters of the suspension was transplanted each into two sites of the caudate nucleus of the lesioned side (10 microliters in total, about 10⁵ cells).
Each of the compounds (I) in a dose of 100 mg/kg (i.p.) was administered every day over two weeks from the day of transplantation. The rotational movements induced by administration of methamphetamine were examined 2 weeks and 1 week before, and 2 weeks and 4 weeks after, the transplantation and the administration of the drug. The number of rotational movements within one minute was counted at intervals of 10 minutes after the administration of methamphetamine, and the total number of rotational movements counted six times was averaged to find a mean number of the rotational movements.

The mark [4] stands for this setting: ip, i.p., read-out: Estimated LD₅₀ (mg/kg, i.p.).
Where [5] appears, read: po, p.o., read-out: Estimated LD₅₀ (mg/kg, p.o.).

“And” between values parts separate entries of the source, which are not always exact repeats. Identical values can stand only once. Like-named read-outs stand apart in the source and are kept apart here.

With `CN1CCN(c2ncc3c(n2)N(C)C(=O)C3)CC1` [Compound 138], the figures for the LD50 at 24 h in the data set “Acute toxicity” (setting [4]) and in the data set “Acute toxicity” (setting [5]) were 250 to 500 mg/kg and above 1000 mg/kg, respectively. In the data set on mouse (Dose 1000 mg/kg), the “Number of dead animals/number of animals tested” value is recorded as 0/5.
Regarding `CCN(CC)C(=O)N1CCN(c2ncc3c(n2)N(C)C(=O)C3)CC1` [Compound 132, 2-Diethylaminocarbonylpiperazino-5,6-dihydro-7-methyl-oxo(7H)pyrrolo[2,3-d]pyrimidine], the LD50 at 24 h in the data set “Acute toxicity” (setting [5]) was above 1000 mg/kg. The “Number of dead animals/number of animals tested” value in the data set with mouse (Dose 1000 mg/kg) is given as 1/5.
Take `CC(C)Nc1ncc2c(n1)N(C)C(=O)C2.Cl` [Compound 102, 2-iso-Propylamino-5,6-dihydro-7-methyl-6-oxo(7H)pyrrolo[2,3-d]pyrimidine hydrochloride]: the results for the “running time” value in data set [1] (10th day after resumption) and in data set [1] (11th day after resumption) were 2.1 ± 0.2 s and 3.0 ± 0.6 s, respectively. In addition, the “Number of mice which ran to the safety area within 5 seconds” value in data set [1] (10th day after resumption) and in data set [1] (11th day after resumption) was 6/6 throughout. In addition, in the data set “Acute toxicity” (setting [5]), the LD50 at 24 h is above 1000 mg/kg. Besides, in the data set on mouse (Dose 1000 mg/kg), the “Number of dead animals/number of animals tested” value is 0/5.
On to `CN1C(=O)Cc2cnc(N3CCCC3)nc21` [Compound 112], for which the LD50 at 24 h in “Acute toxicity” (setting [5]) was above 1000 mg/kg. Besides, the “Number of dead animals/number of animals tested” value in the data set on mouse (Dose 1000 mg/kg) is recorded as 0/5.
Take `CN1C(=O)Cc2cnc(N3CCCCC3)nc21` [Compound 118]: the “Rate of recovery of the interdigit distance (%)” value is given as 79.8±2.5 % in data set [2] (21st day) and 87.9±3.3 % in data set [2] (23rd day). For the same compound, the “Rate of recovery in muscle weight (%)” value in data set [2] (23rd day) was determined as 59.6±2.8 %. Moreover, the “Number of rotational movements of rats and average values thereof (mean ±S.D.)” value was 1.9±3.2 in data set [3] (2W after transplantation, 100 mg/kg (i.p.) every day over two weeks); 13.9±7.4 and 10.8±4.9 in data set [3] (-1W (before transplantation and drug administration, baseline)); 9.1±5.6 in data set [3] (-2W (before transplantation and drug administration, baseline)); “*5.5±7.2” in data set [3] (column headed 3W, footnote: * Data at 2 W, 100 mg/kg (i.p.) every day over two weeks). The LD50 at 24 h in “Acute toxicity” (setting [4]) is 500 to 1000 mg/kg; in “Acute toxicity” (setting [5]) it was above 1000 mg/kg. Also, the “Number of dead animals/number of animals tested” value with mouse (Dose 1000 mg/kg) was 0/5.
Take `C/C1=C2/[N-][C@H]([C@H](CC(N)=O)[C@@]2(C)CCC(=O)NC[C@@H](C)OP(=O)([O-])O[C@H]2[C@@H](O)[C@@H](n3cnc4cc(C)c(C)cc43)O[C@@H]2CO)[C@]2(C)N=C(/C(C)=C3N=C(/C=C4N=C1[C@@H](CCC(N)=O)C\4(C)C)[C@@H](CCC(N)=O)[C@]\3(C)CC(N)=O)[C@@H](CCC(N)=O)[C@]2(C)CC(N)=O.[CH3-].[Co+3]` [Mecobalamin, reference compound]: in data set [2] (21st day), the “Rate of recovery of the interdigit distance (%)” value is recorded as 79.1±2.6 %. Moreover, in data set [2] (23rd day), the “Rate of recovery of the interdigit distance (%)” value worked out at 88.3±4.0 % and the “Rate of recovery in muscle weight (%)” value was 55.0±3.5%.
As for `CC(C)Nc1ncc2c(n1)N(C)C(=O)C2.O=C(O)/C=C\C(=O)O` [Compound 104, 2-iso-Propylamino-5,6-dihydro-7-methyl-6-oxo(7H)pyrrolo[2,3-d]pyrimidine maleate], the “Number of rotational movements of rats and average values thereof (mean ±S.D.)” value was 2.0±3.2 and 3.1±3.8 in data set [3] (2W after transplantation, 100 mg/kg (i.p.) every day over two weeks, maleate, 100 mg/kg); 10.8±3.8 and 10.4±5.2 in data set [3] (-1W (before transplantation and drug administration, baseline), maleate); 12.3±3.7 and 10.1±6.1 in data set [3] (-2W (before transplantation and drug administration, baseline), maleate).
Take `CN1C(=O)Cc2cnc(N3CCOCC3)nc21` [Compound 122]: in the data set “Acute toxicity” (setting [5]), the LD50 at 24 h was above 1000 mg/kg. Further, the “Number of dead animals/number of animals tested” value in the data set on mouse (Dose 1000 mg/kg) was 1/5.
Regarding `CN1Cc2nc(N3CCCCC3)ncc2C1=O` [Compound 218], in “Acute toxicity” (setting [5]), the LD50 at 24 h was above 550 mg/kg. For the same compound, the “Number of dead animals/number of animals tested” value with mouse (Dose 550 mg/kg) is listed as 0/5.
With `CC1CCN(c2ncc3c(n2)N(C)C(=O)C3)CC1` [Compound 175], the LD50 at 24 h in the data set “Acute toxicity” (setting [4]) is 500 to 1000 mg/kg.
`CN1C(=O)Cc2cnc(N3CCSCC3)nc21` [Compound 126]: the LD50 at 24 h in “Acute toxicity” (setting [5]) is above 1000 mg/kg. The “Number of dead animals/number of animals tested” value in the data set on mouse (Dose 1000 mg/kg) is listed as 0/5.
Taken in the same sequence, the figures for `CN(C)c1ncc2c(n1)N(C)C(=O)C2` [Compound 108] were above 1000 mg/kg and 2/5.
Regarding `CN1Cc2nc(N3CCCC3)ncc2C1=O` [Compound 216], the LD50 at 24 h in the data set “Acute toxicity” (setting [5]) is above 550 mg/kg. Also, the “Number of dead animals/number of animals tested” value in the data set with mouse (Dose 550 mg/kg) was 0/5.
